Conditions: for viscosity: 101.3 kPa; for viscosity / mass density: Liquid; for surface tension liquid-gas: Ring tensiometer

CCO [ethanol]
Conditions	surface tension liquid-gas [mN/m]	viscosity [mPa·s]
273.15 K	–	1.832
274.77 K	23.59	–
274.87 K	23.54	–
278.6 K	–	1.649
280.56 K	23.15	1.537
281.05 K	22.95	–
281.17 K	23.09	1.527
284.25 K	22.78	1.455
288.21 K	22.7	1.338
288.23 K	22.61	–
288.65 K	22.63	–
293.15 K	22.36	1.203
294.19 K	22.4	1.192
298.15 K	22.25	1.096
298.41 K	22.07	1.088
298.55 K	22.06	1.088
303.15 K	21.63	1.002
303.2 K	21.66	1
308.23 K	21.33	0.914
311.79 K	21.09	0.855
318.99 K	20.2	0.756
321.15 K	–	0.73
323.15 K	–	0.715
328.15 K	–	0.656
333.15 K	–	0.602
338.16 K	–	0.571
343.15 K	–	0.504
346.15 K	–	0.488

Conditions	mass density [kg/m3]
278.15 K, 100 kPa	803.3
278.15 K, 2000 kPa	805.9
278.15 K, 4000 kPa	807.3
278.15 K, 6000 kPa	809.2
278.15 K, 8000 kPa	810.6
278.15 K, 10000 kPa	812.7
278.15 K, 15000 kPa	815.8
278.15 K, 20000 kPa	821
278.15 K, 25000 kPa	823.4
278.15 K, 30000 kPa	823.8
278.15 K, 35000 kPa	825.8
283.15 K, 100 kPa	799.5
283.15 K, 2000 kPa	801.7
283.15 K, 4000 kPa	803
283.15 K, 6000 kPa	805.1
283.15 K, 8000 kPa	806.6
283.15 K, 10000 kPa	808.5
283.15 K, 15000 kPa	811.8
283.15 K, 20000 kPa	816.4
283.15 K, 25000 kPa	818.9
283.15 K, 30000 kPa	819.9
283.15 K, 35000 kPa	822.2
288.15 K, 100 kPa	795.3
288.15 K, 2000 kPa	797.5
288.15 K, 4000 kPa	798.8
288.15 K, 6000 kPa	800.9
288.15 K, 8000 kPa	802.6
288.15 K, 10000 kPa	804.2
288.15 K, 15000 kPa	807.8
288.15 K, 20000 kPa	811.9
288.15 K, 25000 kPa	814.5
288.15 K, 30000 kPa	816
288.15 K, 35000 kPa	818.6
293.15 K, 100 kPa	791.2
293.15 K, 2000 kPa	793.2
293.15 K, 4000 kPa	794.5
293.15 K, 6000 kPa	796.7
293.15 K, 8000 kPa	798.5
293.15 K, 10000 kPa	800
293.15 K, 15000 kPa	803.7
293.15 K, 20000 kPa	807.4
293.15 K, 25000 kPa	810.2
293.15 K, 30000 kPa	812.2
293.15 K, 35000 kPa	814.9
298.15 K, 100 kPa	785
298.15 K, 2000 kPa	788.8
298.15 K, 4000 kPa	790.3
298.15 K, 6000 kPa	792.5
298.15 K, 8000 kPa	794.3
298.15 K, 10000 kPa	795.8
298.15 K, 15000 kPa	799.7
298.15 K, 20000 kPa	803.1
298.15 K, 25000 kPa	806
298.15 K, 30000 kPa	808.3
298.15 K, 35000 kPa	811.3
303.15 K, 100 kPa	781.6
303.15 K, 2000 kPa	784.4
303.15 K, 4000 kPa	785.9
303.15 K, 6000 kPa	788.2
303.15 K, 8000 kPa	790.2
303.15 K, 10000 kPa	791.6
303.15 K, 15000 kPa	795.6
303.15 K, 20000 kPa	798.8
303.15 K, 25000 kPa	801.8
303.15 K, 30000 kPa	804.5
303.15 K, 35000 kPa	807.6
308.15 K, 100 kPa	777.9
308.15 K, 2000 kPa	780
308.15 K, 4000 kPa	781.6
308.15 K, 6000 kPa	783.9
308.15 K, 8000 kPa	785.9
308.15 K, 10000 kPa	787.3
308.15 K, 15000 kPa	791.5
308.15 K, 20000 kPa	794.7
308.15 K, 25000 kPa	797.8
308.15 K, 30000 kPa	800.7
308.15 K, 35000 kPa	803.9
313.15 K, 100 kPa	774
313.15 K, 2000 kPa	775.4
313.15 K, 4000 kPa	777.2
313.15 K, 6000 kPa	779.5
313.15 K, 8000 kPa	781.7
313.15 K, 10000 kPa	783.1
313.15 K, 15000 kPa	787.4
313.15 K, 20000 kPa	790.6
313.15 K, 25000 kPa	793.8
313.15 K, 30000 kPa	797
313.15 K, 35000 kPa	800.2
318.15 K, 100 kPa	769.7
318.15 K, 2000 kPa	770.8
318.15 K, 4000 kPa	772.8
318.15 K, 6000 kPa	775.1
318.15 K, 8000 kPa	777.3
318.15 K, 10000 kPa	778.8
318.15 K, 15000 kPa	783.2
318.15 K, 20000 kPa	786.5
318.15 K, 25000 kPa	789.9
318.15 K, 30000 kPa	793.2
318.15 K, 35000 kPa	796.5
323.15 K, 100 kPa	765.2
323.15 K, 2000 kPa	766.2
323.15 K, 4000 kPa	768.4
323.15 K, 6000 kPa	770.7
323.15 K, 8000 kPa	772.9
323.15 K, 10000 kPa	774.5
323.15 K, 15000 kPa	779
323.15 K, 20000 kPa	782.6
323.15 K, 25000 kPa	786.1
323.15 K, 30000 kPa	789.5
323.15 K, 35000 kPa	792.8
328.15 K, 100 kPa	760.4
328.15 K, 2000 kPa	761.5
328.15 K, 4000 kPa	763.9
328.15 K, 6000 kPa	766.2
328.15 K, 8000 kPa	768.5
328.15 K, 10000 kPa	770.3
328.15 K, 15000 kPa	774.8
328.15 K, 20000 kPa	778.7
328.15 K, 25000 kPa	782.3
328.15 K, 30000 kPa	785.7
328.15 K, 35000 kPa	789
333.15 K, 100 kPa	755.4
333.15 K, 2000 kPa	756.7
333.15 K, 4000 kPa	759.4
333.15 K, 6000 kPa	761.6
333.15 K, 8000 kPa	764
333.15 K, 10000 kPa	766
333.15 K, 15000 kPa	770.6
333.15 K, 20000 kPa	774.9
333.15 K, 25000 kPa	778.6
333.15 K, 30000 kPa	782
333.15 K, 35000 kPa	785.2
338.15 K, 100 kPa	750
338.15 K, 2000 kPa	751.8
338.15 K, 4000 kPa	754.9
338.15 K, 6000 kPa	757
338.15 K, 8000 kPa	759.5
338.15 K, 10000 kPa	761.7
338.15 K, 15000 kPa	766.3
338.15 K, 20000 kPa	771.2
338.15 K, 25000 kPa	775
338.15 K, 30000 kPa	778.3
338.15 K, 35000 kPa	781.4
343.15 K, 100 kPa	744.3
343.15 K, 2000 kPa	746.8
343.15 K, 4000 kPa	750.3
343.15 K, 6000 kPa	752.3
343.15 K, 8000 kPa	754.9
343.15 K, 10000 kPa	757.3
343.15 K, 15000 kPa	762
343.15 K, 20000 kPa	767.6
343.15 K, 25000 kPa	771.5
343.15 K, 30000 kPa	774.6
343.15 K, 35000 kPa	777.6
348.15 K, 100 kPa	738.4
348.15 K, 2000 kPa	741.8
348.15 K, 4000 kPa	745.6
348.15 K, 6000 kPa	747.6
348.15 K, 8000 kPa	750.2
348.15 K, 10000 kPa	753
348.15 K, 15000 kPa	757.7
348.15 K, 20000 kPa	764
348.15 K, 25000 kPa	768
348.15 K, 30000 kPa	770.9
348.15 K, 35000 kPa	773.7
353.15 K, 2000 kPa	736.7
353.15 K, 4000 kPa	741
353.15 K, 6000 kPa	742.8
353.15 K, 8000 kPa	745.5
353.15 K, 10000 kPa	748.6
353.15 K, 15000 kPa	753.3
353.15 K, 20000 kPa	760.5
353.15 K, 25000 kPa	764.6
353.15 K, 30000 kPa	767.2
353.15 K, 35000 kPa	769.9

Reference: the NIST ThermoML archive (doi:10.1016/j.jct.2010.03.022)
